These molecules were tested against T1, hCGRP (human calcitonin gene-related peptide) receptor (Homo sapiens, UniProt O60894+Q16602) (assay: Inhibition of cAMP production by CGRP receptor antagonists in SK-N-MC neuroblastoma cells (HTRF)). Conditions: human CGRP 0.8 nM as agonist, Kb estimated as agonist-corrected IC50, read-out: hCGRP Kb ± SD.
T1 construct: Cultured SK-N-MC neuroblastoma cells that endogenously express the hCGRP receptor (ATCC); host or cells: SK-N-MC neuroblastoma cells
Type: cell-based
Experimental: The hCGRP (human calcitonin gene-related peptide) receptor is functionally coupled to the Gas proteins. Stimulation by hCGRP results in an increased synthesis of intracellular cAMP and can be blocked by the addition of receptor antagonists. Receptor activity is thus a reflection of the amount of cAMP present within cells which can be detected using standard in vitro technology.
Cell Culture: Cultured SK-N-MC neuroblastoma cells that endogenously express the hCGRP receptor (ATCC) are grown in Eagle's Minimum essential medium (HYCLONE™) supplemented with 10% heat-inactivated Fetal bovine serum (FBS; GIBCO®), Non-Essential Amino Acids (GIBCO®), 1 mM sodium pyruvate, 2 mM L-glutamine, 100 U/mL of penicillin, and 10 μg/mL of streptomycin to about 70% confluency. After providing fresh medium, the cells are incubated at 37° C. overnight. On the day of the assay, cells are detached using ACCUTASE® (MP Biomedicals), resuspended in assay buffer [Hank's Balanced Salt Solution/Dulbecco's phosphate-buffered saline with […] each of CaCl2 and MgCl2 mixed 1:2, 3.3 mM 4-(2-hydroxyethyl)-1-piperazineethanesulfonic acid, 0.03% bovine serum albumin, and 0.5 mM 1-methyl-3-isobutylxanthine (as inhibitor of cAMP)], and seeded 3-5K/well into 384-well, poly-D-lysine coated white plates (BD Biosciences).
Inhibition of cAMP Production: For dose-response studies, compounds are serially diluted 1:3 in dimethyl sulfoxide and then 1:10 into assay buffer. […]
Data Analysis: The amount of intracellular cAMP is quantitated using HTRF technology (Cisbio) as per vendor instructions. […] The HTRF signal is immediately detected using an ENVISION® plate reader (Perkin-Elmer) to calculate the ratio of fluorescence at […]. […] Relative […] values are calculated from the top-bottom range of the concentration response curve using a four-parameter logistic curve fitting program (ACTIVITYBASE® v5.3.1.22 or GENEDATA SCREENER® v12.0.4), and Kb values are estimated as agonist-corrected IC50 values using the equation: […]

T1 sequence (Q16602 23-461): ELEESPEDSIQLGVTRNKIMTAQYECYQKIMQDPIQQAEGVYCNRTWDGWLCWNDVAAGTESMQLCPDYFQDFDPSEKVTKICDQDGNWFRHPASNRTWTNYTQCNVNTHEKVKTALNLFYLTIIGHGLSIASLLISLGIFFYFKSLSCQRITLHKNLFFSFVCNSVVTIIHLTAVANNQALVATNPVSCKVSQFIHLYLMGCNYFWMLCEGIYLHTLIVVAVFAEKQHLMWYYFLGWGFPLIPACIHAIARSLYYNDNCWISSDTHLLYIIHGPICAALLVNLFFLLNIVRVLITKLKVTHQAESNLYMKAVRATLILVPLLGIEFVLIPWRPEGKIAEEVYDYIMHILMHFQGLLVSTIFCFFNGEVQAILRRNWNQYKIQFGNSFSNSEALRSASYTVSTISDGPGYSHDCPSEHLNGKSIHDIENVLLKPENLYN
T1 sequence (O60894 27-148): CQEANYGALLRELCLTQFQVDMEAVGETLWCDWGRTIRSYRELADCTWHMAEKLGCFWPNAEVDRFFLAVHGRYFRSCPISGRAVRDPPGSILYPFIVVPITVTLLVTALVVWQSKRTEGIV

| Kb | SMILES |
| --- | --- |
| 80 ± 10 pM | Cc1cc(N2CCC2)cc(OCc2ccc([C@@H](C)[C@@]3(C)C(=O)NC[C@@H]3CF)cc2)n1 [Example 1, (3R,4R)-3-[(1R)-1-[4-[[4-(azetidin-1-yl)-6-methyl-2-pyridyl]oxymethyl]phenyl]ethyl]-4-(fluoromethyl)-3-methyl-pyrrolidin-2-one] |
| 140 ± 20 pM | Cc1cc(N2CC(F)C2)cc(OCc2ccc([C@@H](C)[C@@]3(C)C(=O)NC[C@@H]3C)cc2)n1 [Example 2, (3R,4R)-3-[(1R)-1-[4-[[4-(3-fluoroazetidin-1-yl)-6-methyl-2-pyridyl]oxymethyl]phenyl]ethyl]-3,4-dimethyl-pyrrolidin-2-one] |
| 100 ± 20 pM | Cc1cc(N2CC(F)C2)cc(OCc2ccc([C@@H](C)[C@@]3(C)C(=O)NC[C@@H]3CF)cc2)n1 [Example 3, (3R,4R)-3-[(1R)-1-[4-[[4-(3-fluoroazetidin-1-yl)-6-methyl-2-pyridyl]oxymethyl]phenyl]ethyl]-4-(fluoromethyl)-3-methyl-pyrrolidin-2-one] |

Reference: US20230096051A1, “CGRP ANTIGONISTS USEFUL AS TRACER COMPOUNDS FOR POSITRON EMISSION TOMOGRAPHY” (Eli Lilly and Company, priority 2019, published 2023)
